Results as given in US10584115B2, “Substituted pyridine and pyrazine BMI-1 inhibitors” (PTC Therapeutics, Inc., priority 2013, dated 2020).
Like-named read-outs stand apart in the source and are kept apart here.

Tests used:
Bmi-1 protein = experiment: Sandwich ELISA Assay (Bmi-1 protein level in HT-1080 cells after compound treatment); type: cell-based
Summary of the method: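 HT-1080 cells exposed to compounds for 40–48 h at 37 °C (0.5% DMSO final), then lysed. Bmi-1 in lysates measured by sandwich ELISA (mouse monoclonal capture, rabbit anti-Bmi-1 detection, HRP anti-rabbit, TMB), read at OD450 with OD570 reference against a recombinant Bmi-1 standard curve (0–8000 pg/mL).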

[1] = Table 1, Bmi-1 sandwich ELISA, read-out: ELISA EC50 value for Bmi-1 protein

| EC50 (Bmi-1 protein; [1]) [nM] | melting point [°C] | Compound | EC50 (Bmi-1 protein; read-out: ELISA EC50 value for Bmi-1 protein, Table 1, Bmi-1 sandwich ELISA) [nM] |
| --- | --- | --- | --- |
| 1 to 10 | 290 to 292 | Cc1nc2ncc(F)cn2c1-c1cc(C#N)cc(Nc2ccc(C(F)(F)F)cc2)n1 [compound 437, 2-(6-fluoro-2-methylimidazo[1,2-a]pyrimidin-3-yl)-6-{[4-(trifluoromethyl)phenyl]amino}pyridine-4-carbonitrile] |  |
| 10 to 100 | 268 to 270 | Cc1nc2ncc(F)cn2c1-c1cc(C#N)cc(Nc2ccc(OC(F)F)c(F)c2)n1 [compound 439, 2-{[4-(difluoromethoxy)-3-fluorophenyl]amino}-6-(6-fluoro-2-methylimidazo[1,2-a]pyrimidin-3-yl)pyridine-4-carbonitrile] |  |
| 1 to 10 | 243 to 245 | Cc1nc2c(F)cc(F)cn2c1-c1cc(C#N)cc(Nc2ccc(C(F)(F)F)cc2)n1 [compound 441, 2-(6,8-difluoro-2-methylimidazo[1,2-a]pyridin-3-yl)-6-{[4-(trifluoromethyl)phenyl]amino}pyridine-4-carbonitrile] |  |
| 1 to 10 | 236 to 238 | Cc1nc2c(F)cc(F)cn2c1-c1cc(C#N)cc(Nc2ccc(OC(F)F)cc2)n1 [compound 442, 2-{[4-(difluoromethoxy)phenyl]amino}-6-(6,8-difluoro-2-methylimidazo[1,2-a]pyridin-3-yl)pyridine-4-carbonitrile] |  |
| 10 to 100 | 213 to 216 | Cc1nc2c(F)cc(F)cn2c1-c1cc(C#N)cc(Nc2ccc(OC(F)(F)F)cc2)n1 [compound 443, 2-(6,8-difluoro-2-methylimidazo[1,2-a]pyridin-3-yl)-6-{[4-(trifluoromethoxy)phenyl]amino}pyridine-4-carbonitrile] |  |
| 10 to 100 | 238 to 241 | Cc1nc2c(F)cc(F)cn2c1-c1cc(C#N)cc(Nc2ccc(OC(F)F)c(F)c2)n1 [compound 444, 2-{[4-(difluoromethoxy)-3-fluorophenyl]amino}-6-(6,8-difluoro-2-methylimidazo[1,2-a]pyridin-3-yl)pyridine-4-carbonitrile] |  |
| 10 to 100 | 202 to 203 | Fc1cc(F)c2nc(C3CC3)n(-c3cncc(Nc4ccc(OC(F)F)cc4)n3)c2c1 [compound 462, 6-(2-cyclopropyl-4,6-difluoro-1H-benzimidazol-1-yl)-N-[4-(difluoromethoxy)phenyl]pyrazin-2-amine] |  |
| 100 to 3000 | 218 to 220 | Fc1cc(F)c2nc(C3CC3)n(-c3cncc(Nc4ccc(OC(F)(F)F)cc4)n3)c2c1 [compound 463, 6-(2-cyclopropyl-4,6-difluoro-1H-benzimidazol-1-yl)-N-[4-(trifluoromethoxy)phenyl]pyrazin-2-amine] |  |
| 10 to 100 | 267 to 270 | Fc1cc(F)c2nc(C3CC3)n(-c3cncc(Nc4ccc(C(F)(F)F)nc4)n3)c2c1 [compound 464, 6-(2-cyclopropyl-4,6-difluoro-1H-benzimidazol-1-yl)-N-[6-(trifluoromethyl)pyridin-3-yl]pyrazin-2-amine] |  |
| 10 to 100 | 249 to 251 | N#Cc1cc(Nc2ccc(C(F)(F)F)cc2)nc(-c2c(C(F)F)nc3ccc(F)cn23)c1 [compound 466, 2-[2-(difluoromethyl)-6-fluoroimidazo[1,2-a]pyridin-3-yl]-6-{[4-(trifluoromethyl)phenyl]amino}pyridine-4-carbonitrile] |  |
| 1 to 10 | 215 to 217 | N#Cc1cc(Nc2ccc(OC(F)F)cc2)nc(-c2c(C(F)F)nc3ccc(F)cn23)c1 [compound 467, 2-{[4-(difluoromethoxy)phenyl]amino}-6-[2-(difluoromethyl)-6-fluoroimidazo[1,2-a]pyridin-3-yl]pyridine-4-carbonitrile] |  |

| Compound | EC50 (Bmi-1 protein; [1]) [nM] | melting point [°C] | EC50 (Bmi-1 protein; read-out: ELISA EC50 value for Bmi-1 protein, Table 1, Bmi-1 sandwich ELISA) [nM] |
| --- | --- | --- | --- |
| Fc1cc(F)c2nc(C3CC3)n(-c3cncc(Nc4ccc(C(F)(F)F)cc4)n3)c2c1 [compound 461, 6-(2-cyclopropyl-4,6-difluoro-1H-benzimidazol-1-yl)-N-[4-(trifluoromethyl)phenyl]pyrazin-2-amine] |  | 247 to 249 | 10 to 100 |
